Five molecules from BindingDB's records for doi:10.1021/cb0500042 (Suny Stony Brook, 2006) can be followed below.

Assay [1] has as its target T1, Enoyl-[acyl-carrier-protein] reductase [NADH] (Mycobacterium tuberculosis (strain ATCC 25618 / H37Rv), UniProt P9WGR1).
T1 sequence (P9WGR1 whole entry): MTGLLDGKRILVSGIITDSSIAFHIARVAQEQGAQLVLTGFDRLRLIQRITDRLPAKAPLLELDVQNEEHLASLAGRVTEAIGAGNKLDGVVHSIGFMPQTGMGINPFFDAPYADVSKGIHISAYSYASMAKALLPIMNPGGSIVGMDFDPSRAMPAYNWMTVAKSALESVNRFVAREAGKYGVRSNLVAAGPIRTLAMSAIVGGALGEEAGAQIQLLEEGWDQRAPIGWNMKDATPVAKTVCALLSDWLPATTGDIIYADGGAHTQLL
Briefly: Enoyl-CoA Reductase Inhibition Assay. The following applies: pH 6.8; 22 °C. The method, then:
The assay measured the NADH-dependent catalysis of a DD-CoA substrate as a decrease in 340 nm absorbance resulting from conversion of NADH to NAD. The absorbance OD readings were taken on a microreader. The IC50 values were determined using at least eight concentrations, with each concentration assayed in triplicate under saturating substrate conditions. The values were calculated from plots of enzyme activity versus the log of the inhibitor concentration using the GraFit IC50 four-parameter fit software.

In assay [2] the target is T1, Enoyl-[acyl-carrier-protein] reductase [NADH]. The assay is described as follows: Measurement of Inhibition Constants. Particulars: pH 6.8; 22 °C. The method, then: Inhibition constants (Ki) were calculated by determining the kcat and Km (DDCoA) values at several fixed inhibitor concentrations. The inhibition data were analyzed using the standard equation for uncompetitive inhibition. For compounds with Ki values in the low nanomolar range, initial velocities were determined at a fixed substrate concentration and the data were fit to the equation: vi/v0 = (Km + S)/(Km + S[1 + I/ Ki]). Where vi and v0 are the initial velocities in the presence and absence of inhibitor. […] Data fitting was performed using Grafit 4.0 (Erithacus Software Ltd.).

Usually IC50 stands for the concentration needed to halve the response being measured. Lower therefore signals higher potency. One may read the Ki as the dissociation constant of the complex between target and ligand, obtained from inhibition or displacement.

For `CCCCCCCCCCCCCCc1ccc(Oc2ccccc2)c(O)c1` [2-phenoxy-5-tetradecylphenol], in assay [1], half-maximal inhibition (IC50) required 0.15 µM. Moreover, in assay [2], the Ki turned out to be 0.0303 µM.

For the molecule `CCCCCCCCc1ccc(Oc2ccccc2)c(O)c1` [5-Octyl-2-phenoxy-phenol], affinity in assay [2] was put at a Ki of 0.0011 µM. This lies in the single-digit nanomolar range.

As to `CCCCCCc1ccc(Oc2ccccc2)c(O)c1` [5-hexyl-2-phenoxyphenol], the IC50 in assay [1] was 0.011 µM. The affinity in assay [2], expressed as Ki, was 0.0094 µM.

As for `CCCCCc1ccc(Oc2ccccc2)c(O)c1` [5-pentyl-2-phenoxylphenol], in assay [2], the inhibition constant (Ki) stood at 0.0118 µM.

For `NC(=O)C1=CN([C@@H]2O[C@H](CO[P@@](=O)(O)O[P@@](=O)(O)OC[C@H]3O[C@@H](n4cnc5c(N)ncnc54)[C@H](O)[C@@H]3O)[C@@H](O)[C@H]2O)C=C[C@@H]1C(=O)c1ccncc1` [[[(2R,3S,4R,5R)-5-(6-aminopurin-9-yl)-3,4-dihydroxy-oxolan-2-yl]methoxy-hydroxy-phosphoryl]oxy-[[(2R,3S,4R,5R)-5-[(4S)-3-carbamoyl-4-(pyridine-4-carbonyl)-4H-pyridin-1-yl]-3,4-dihydroxy-oxolan-2-yl]methoxy]phosphinic acid], in assay [2], the Ki was 0.00075 µM. This Ki lies about 16-fold lower than the previous one.
